Target: T1, recombinant guanylate cyclase reporter cell line (Rattus norvegicus, UniProt P19686+P20595)
T1 construct: expressed in transfected cells
T1 sequence (P19686 1-690): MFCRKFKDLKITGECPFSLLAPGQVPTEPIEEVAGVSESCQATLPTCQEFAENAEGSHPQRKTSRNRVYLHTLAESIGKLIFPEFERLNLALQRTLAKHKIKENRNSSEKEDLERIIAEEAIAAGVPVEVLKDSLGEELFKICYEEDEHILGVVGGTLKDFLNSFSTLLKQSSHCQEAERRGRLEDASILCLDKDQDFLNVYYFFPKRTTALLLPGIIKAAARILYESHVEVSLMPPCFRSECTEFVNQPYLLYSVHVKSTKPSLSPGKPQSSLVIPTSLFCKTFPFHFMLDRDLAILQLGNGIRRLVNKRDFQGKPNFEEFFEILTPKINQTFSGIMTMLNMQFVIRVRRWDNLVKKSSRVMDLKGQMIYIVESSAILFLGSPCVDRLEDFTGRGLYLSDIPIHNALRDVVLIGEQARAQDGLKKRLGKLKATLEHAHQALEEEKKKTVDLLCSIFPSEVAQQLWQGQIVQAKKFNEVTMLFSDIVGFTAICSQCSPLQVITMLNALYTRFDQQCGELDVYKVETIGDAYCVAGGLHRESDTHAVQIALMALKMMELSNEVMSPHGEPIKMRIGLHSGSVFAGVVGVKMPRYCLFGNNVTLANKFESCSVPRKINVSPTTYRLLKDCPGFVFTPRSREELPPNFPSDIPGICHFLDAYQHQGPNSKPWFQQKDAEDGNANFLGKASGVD
T1 sequence (P20595 1-619): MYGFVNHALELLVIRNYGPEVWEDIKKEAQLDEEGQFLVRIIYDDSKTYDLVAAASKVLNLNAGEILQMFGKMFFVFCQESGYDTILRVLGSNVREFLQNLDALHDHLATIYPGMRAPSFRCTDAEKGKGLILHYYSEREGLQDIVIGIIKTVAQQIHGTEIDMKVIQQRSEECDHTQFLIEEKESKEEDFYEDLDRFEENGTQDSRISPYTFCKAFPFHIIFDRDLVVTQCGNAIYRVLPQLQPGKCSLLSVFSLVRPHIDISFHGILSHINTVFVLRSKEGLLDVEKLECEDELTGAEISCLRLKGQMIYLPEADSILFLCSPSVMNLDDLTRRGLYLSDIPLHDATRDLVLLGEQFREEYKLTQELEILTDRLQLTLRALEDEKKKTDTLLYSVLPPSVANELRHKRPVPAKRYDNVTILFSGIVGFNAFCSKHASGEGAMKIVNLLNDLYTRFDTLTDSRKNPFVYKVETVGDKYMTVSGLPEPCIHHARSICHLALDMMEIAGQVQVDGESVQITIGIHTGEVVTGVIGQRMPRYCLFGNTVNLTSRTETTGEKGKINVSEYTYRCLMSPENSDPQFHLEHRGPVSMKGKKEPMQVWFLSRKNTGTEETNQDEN
Assay: Effect on a recombinant guanylate cyclase reporter cell line
Assay type: cell-based
Settings: MEC = minimum effective concentration; in some cases mean values for individual determinations
Description: B-2. Effect on a Recombinant Guanylate Cyclase Reporter Cell Line
The cellular action of the compounds of the invention is determined using a recombinant guanylate cyclase reporter cell line, as described in F. Wunder et al., Anal. Biochem. 339, 104-112 (2005).
Representative MEC values (MEC=minimum effective concentration) for the compounds of the invention are shown in the table below (in some cases as mean values for individual determinations): […]

SMILES | MEC [µM]
CCCCC(NC(=O)c1c(C)nc2c(OCc3c(F)cccc3F)nc(C)cn12)C(C)(C)O (single isomer, unassigned; ent-8) [Example 7, ent-8[(2,6-Difluorobenzyl)oxy]-N-(2-hydroxy-2-methylheptan-3-yl)-2,6-dimethylimidazo[1,2-a]pyrazine-3-carboxamide] | 0.3
COC(=O)[C@H]1CC[C@H](CNC(=O)c2c(C)nc3c(OCc4c(F)cccc4F)nc(C)cn23)CC1 [Example 8, Methyl trans-4-{[({8-[(2,6-difluorobenzyl)oxy]-2,6-dimethylimidazoyl}carbonyl)amino]methyl}cyclohexanecarboxylate] | 1
Cc1cn2c(C(=O)NCCN(CC(F)F)C3CC3)c(C)nc2c(OCc2c(F)cccc2F)n1 [Example 33, N-{2-[cyclopropyl(2,2-difluoroethyl)amino]ethyl}-8-[(2,6-difluorobenzyl)oxy]-2,6-dimethylimidazo[1,2-a]pyrazine-3-carboxamide] | 3
Cc1cn2c(C(=O)NC[C@H]3CC[C@H](C(=O)O)CC3)c(C)nc2c(OCc2c(F)cccc2F)n1.Cl [Example 11, trans-4-{[({8-[(2,6-Difluorobenzyl)oxy]-2,6-dimethylimidazo[1,2-a]pyrazin-3-yl}carbonyl)amino]methyl}cyclohexanecarboxylic acid hydrochloride] | 3
Cc1cn2c(C(=O)Nc3c(C(F)(F)F)n[nH]c3C)c(C)nc2c(OCc2c(F)cccc2F)n1 [Example 27, 8-[(2,6-difluorobenzyl)oxy]-2,6-dimethyl-N-[5-methyl-3-(trifluoromethyl)-1H-pyrazol-4-yl]imidazo[1,2-a]pyrazine-3-carboxamide] | 1
Cc1nc2c(OCC3CCC3)nccn2c1C(=O)NCc1ccc(F)c(F)c1 [Example 48, 8-(Cyclobutylmethoxy)-N-(3,4-difluorobenzyl)-2-methylimidazo[1,2-a]pyrazine-3-carboxamide] | 3.0
Cc1cn2c(C(=O)NCC(C)(N)CCC(F)(F)F)c(C)nc2c(OCc2c(F)cccc2F)n1 (single isomer, unassigned; enantiomer b) [Example 38, ent-N-(2-Amino-5,5,5-trifluoro-2-methylpentyl)-8-[(2,6-difluorobenzyl)oxy]-2,6-dimethylimidazo[1,2-a]pyrazine-3-carboxamide (enantiomer B)] | 0.3
Cc1cn2c(C(=O)N[C@H]3CCOC3=O)c(C)nc2c(OCc2c(F)cccc2F)n1 [Example 34, 8-[(2,6-difluorobenzyl)oxy]-2,6-dimethyl-N-[(3S)-2-oxotetrahydrofuran-3-yl]imidazo[1,2-a]pyrazine-3-carboxamide] | 3
CCCC[C@H](CO)NC(=O)c1c(C)nc2c(OCc3c(F)cccc3F)nc(C)cn12 [Example 3, 8-[(2,6-Difluorobenzyl)oxy]-N-[(2R)-1-hydroxyhexan-2-yl]-2,6-dimethylimidazo[1,2-a]pyrazine-3-carboxamide] | 3
Cc1cn2c(C(=O)NNc3ccc(F)cc3)c(C)nc2c(OCc2c(F)cccc2F)n1 [Example 52, 8-[(2,6-difluorobenzyl)oxy]-N′-(4-fluorophenyl)-2,6-dimethylimidazo[1,2-a]pyrazine-3-carbohydrazide] | 0.3
Cc1cn2c(C(=O)NC(C)c3nc(C(F)(F)F)no3)c(C)nc2c(OCc2c(F)cccc2F)n1 (racemic) [Example 26, rac-8-[(2,6-difluorobenzyl)oxy]-2,6-dimethyl-N-{1-[3-(trifluoromethyl)-1,2,4-oxadiazol-5-yl]ethyl}imidazo[1,2-a]pyrazine-3-carboxamide] | 3
Cc1cn2c(C(=O)NCCCCCC#N)c(C)nc2c(OCc2c(F)cccc2F)n1 [Example 49, N-(5-Cyanopentyl)-8-[(2,6-difluorobenzyl)oxy]-2,6-dimethylimidazo[1,2-a]pyrazine-3-carboxamide] | 1.0
Cc1cn2c(C(=O)NC3CC4CCCC(C3)N4C)c(C)nc2c(OCc2c(F)cccc2F)n1 (stereo not shown) [Example 36, 8-[(2,6-difluorobenzyl)oxy]-2,6-dimethyl-N-(9-methyl-9-azabicyclo[3.3.1]non-3-yl)imidazo[1,2-a]pyrazine-3-carboxamide] | 1
Cc1cn2c(C(=O)NNC(=O)CN(C)C)c(C)nc2c(OCc2c(F)cccc2F)n1 [Example 53, 8-[(2,6-difluorobenzyl)oxy]-N′-[(dimethylamino)acetyl]-2,6-dimethylimidazo[1,2-a]pyrazine-3-carbohydrazide] | 3.0
Cc1cn2c(C(=O)NC(C#N)c3ccc(Cl)cc3)c(C)nc2c(OCc2c(F)cccc2F)n1 (racemic) [Example 46, rac-N-[(4-chlorophenyl)(cyano)methyl]-8-[(2,6-difluorobenzyl)oxy]-2,6-dimethylimidazo[1,2-a]pyrazine-3-carboxamide] | 10
CCCC(C)(N)CNC(=O)c1c(C)nc2c(OCc3c(F)cccc3F)nc(C)cn12 (single isomer, unassigned; enantiomer b) [Example 39, ent-N-(2-Amino-2-methylpentyl)-8-[(2,6-difluorobenzyl)oxy]-2,6-dimethylimidazo[1,2-a]pyrazine-3-carboxamide (enantiomer B)] | 0.2
Cc1cn2c(C(=O)NOCCO)c(C)nc2c(OCc2c(F)cccc2F)n1 [Example 44, 8-[(2,6-Difluorobenzyl)oxy]-N-(2-hydroxyethoxy)-2,6-dimethylimidazo[1,2-a]pyrazine-3-carboxamide] | 10
Cc1cn2c(C(=O)NCCN(C)C)c(C)nc2c(OCc2c(F)cccc2F)n1 [Example 19, 8-[(2,6-difluorobenzyl)oxy]-N-[2-(dimethylamino)ethyl]-2,6-dimethylimidazo[1,2-a]pyrazine-3-carboxamide] | 3
Cc1cn2c(C(=O)N[C@H]3CCNC3=O)c(C)nc2c(OCc2c(F)cccc2F)n1 [Example 9, 8-[(2,6-Difluorobenzyl)oxy]-2,6-dimethyl-N-[(3S)-2-oxopyrrolidin-3-yl]imidazo[1,2-a]pyrazine-3-carboxamide] | 3
CCC(N)(CC)CNC(=O)c1c(C)nc2c(OCc3c(F)cccc3F)nc(C)cn12 [Example 15, N-(2-amino-2-ethylbutyl)-8-[(2,6-difluorobenzyl)oxy]-2,6-dimethylimidazo[1,2-a]pyrazine-3-carboxamide] | 1
Cc1cn2c(C(=O)NC(CCCC(F)(F)F)C(C)(C)O)c(C)nc2c(OCc2c(F)cccc2F)n1 (single isomer, unassigned; ent-8) [Example 6, ent-8[(2,6-Difluorobenzyl)oxy]-2,6-dimethyl-N-(7,7,7-trifluoro-2-hydroxy-2-methylheptan-3-yl)imidazo[1,2-a]pyrazine-3-carboxamide] | 3
Cc1cn2c(C(=O)NN3CCOCC3)c(C)nc2c(OCc2c(F)cccc2F)n1 [Example 45, 8-[(2,6-difluorobenzyl)oxy]-2,6-dimethyl-N-(morpholin-4-yl)imidazo[1,2-a]pyrazine-3-carboxamide] | 10
CCCC[C@H](C)NC(=O)c1c(C)nc2c(OCc3c(F)cccc3F)nc(C)cn12 [Example 2, 8-[(2,6-Difluorobenzyl)oxy]-N-[(2S)-hexan-2-yl]-2,6-dimethylimidazo[1,2-a]pyrazine-3-carboxamide] | 1
Cc1cn2c(C(=O)NCc3ncc[nH]3)c(C)nc2c(OCc2c(F)cccc2F)n1 [Example 25, 8-[(2,6-difluorobenzyl)oxy]-N-(1H-imidazol-2-ylmethyl)-2,6-dimethylimidazo[1,2-a]pyrazine-3-carboxamide] | 3
Cc1cn2c(C(=O)NC(C)COCC(F)(F)F)c(C)nc2c(OCc2c(F)cccc2F)n1 (racemic) [Example 31, rac-8-[(2,6-difluorobenzyl)oxy]-2,6-dimethyl-N-[1-(2,2,2-trifluoroethoxy)propan-2-yl]imidazo[1,2-a]pyrazine-3-carboxamide] | 3

Reference: patent publication US20160176880A1, “SUBSTITUTED IMIDAZO[1,2-A]PYRAZINECARBOXAMIDES AND USE THEREOF” (BAYER PHARMA AKTIENGESELLSCHAFT, priority 2013, published 2016)
